Patent EP4608400B1, “COMPOUND FOR TREATMENT OF PAIN” (Initiator Pharma A/S, priority 2022, dated 2024)
“Also recorded” adds a separate entry of the source.

Legend:
[1] = target: T1, dopamine transporter (DAT) (Homo sapiens, UniProt Q01959); experiment: Inhibition of human transporter in stable epithelial cell lines (DAT); assay type: cell-based; conditions: average of two replicates (n=2)
T1 construct: expressed in transfected cells
Experimental: Compounds were tested for their ability to inhibit the reuptake of the monoamine neurotransmitters dopamine (DA), noradrenaline (NA), and serotonin (5-HT) in synaptosomes as described in WO 97/16451 (NeuroSearch A/S). In addition, the compounds were tested in human epithelial cells expressing human transporters for 5-HT (SERT), dopamine (DAT), and norepinephrine (NET).
The results are the average of two-replicates per experiment (n=2).

Dopamine (DA) = experiment: Microdialysis studies in mice brain (cortex, striatum); assay type: in vivo; conditions: 10 mg/kg s.c., n=1-2
Experimental: In a small subset of mice, microdialysis was performed with a probe placed in either the striatum or cortex by use of stereotaxis.

[2] = test system: intradermal capsaicin model; experiment: Phase I crossover study, intradermal capsaicin model: pharmacodynamics; assay type: in vivo, human; conditions: for Pain Score of Brush-evoked Allodynia Using an NRS, Adjusted Mean (MMRM) / Subjective Rating of Pain, Adjusted Mean (MMRM): overall, all timepoints, N=24; for Pain Score of Brush-evoked Allodynia Using an NRS, Adjusted Mean (MMRM): placebo 2.0; for Subjective Rating of Pain, Adjusted Mean (MMRM): placebo 17.1
Text: Participants. The volunteers were males aged 18 to 55 years with a body mass index (BMI) of 18 to 30 kg/m2. They were healthy as determined by a responsible physician, based on a medical evaluation including medical history, physical examination, concomitant medication, vital signs, 12-lead ECG, and clinical laboratory evaluations. The participants must have been in good general health with a skin type compatible with the measures and without significant skin allergies, pigmentary disorders or any active dermatological conditions. […] The participants provided written informed consent, which included compliance with the requirements and restrictions listed in the consent form, including the use of a condom during the trial and for 3 months after their final dose of trial medication, if their partner was a woman of childbearing potential.
Clinical and laboratory data. Prior to and 15, 30, 60, 90 and 120 minutes after administration of capsaicin, measurements of pain, hyperalgesia, allodynia and AF were performed. At 2 hours post-capsaicin injection, subjects completed a quantitative sensory testing (QST) battery at two sites on the volar surface of each forearm. One site was the most recent capsaicin injection site, and the other was at an equivalent point on the opposite forearm. […] There was a minimum washout period of 5 days between treatment periods.
Reconstitution was performed by a Pharmacist at the clinical site prior to dosing.
In order to maintain the blind, a double dummy approach was used.
Subjects were randomised to receive a single administration of a treatment combination during each treatment period. All subjects received each treatment combination once only.
Evaluation methods: Pharmacodynamics was assessed through pain measurements (response to ID injection of capsaicin, measurement of pain using a visual analogue scale, area and pain score of hyperalgesia, area and pain score of allodynia, and AF) and the ID capsaicin model. Subjects also completed a QST battery at two sites on the volar surface of either forearm. The QST battery included the following tests: thermal detection and pain thresholds, mechanical detection and pain thresholds, stimulus/response functions, wind-up ratio and pressure pain threshold.
For measurement of pain, a visual analogue scale (VAS) was used. The VAS consisted of a 100 mm line, with 0 representing "no pain" and 100 representing "worst pain imaginable". Subjects were asked to mark the VAS using a single vertical stroke at the point they considered to appropriately reflect their level of pain from the injection of capsaicin (not general pain). A new VAS was provided for each time point and subjects were not allowed to see their previous VAS responses. The VAS was scored by measuring from the left-hand end of the scale to the point where the subject had marked the line, and the distance in mm was recorded.
Response to pain was also assessed by a numeric rating scale (NRS). For example, by using an 11-point numeric rating scale ranging from 0 ("no pain") to 10 ("worst possible pain") and asking the subject to rate their pain. A NRS scale of 0 to 100 was also used in some assesments.
The thermal tests were performed using a thermode probe (Medoc). Cold and warm detection thresholds were measured first, then cold pain and heat pain thresholds were determined. The mean threshold temperature of 3 consecutive measurements was calculated. All thresholds were obtained with ramped stimuli (1°C/sec) that were terminated when the subject pressed a button. For thermal detection thresholds the ramp back to baseline was 1°C/sec, while for thermal pain thresholds this ramp was chosen at maximum device capacity resulting in approximately a nominal 5°C/sec.
The mechanical detection threshold was measured with a standardised set of modified von Frey nylons that exerted forces upon bending between 0.25 and 512 mN graded by a factor of 2 (1 to 2 seconds contact time). […]

T1 sequence (Q01959 whole entry): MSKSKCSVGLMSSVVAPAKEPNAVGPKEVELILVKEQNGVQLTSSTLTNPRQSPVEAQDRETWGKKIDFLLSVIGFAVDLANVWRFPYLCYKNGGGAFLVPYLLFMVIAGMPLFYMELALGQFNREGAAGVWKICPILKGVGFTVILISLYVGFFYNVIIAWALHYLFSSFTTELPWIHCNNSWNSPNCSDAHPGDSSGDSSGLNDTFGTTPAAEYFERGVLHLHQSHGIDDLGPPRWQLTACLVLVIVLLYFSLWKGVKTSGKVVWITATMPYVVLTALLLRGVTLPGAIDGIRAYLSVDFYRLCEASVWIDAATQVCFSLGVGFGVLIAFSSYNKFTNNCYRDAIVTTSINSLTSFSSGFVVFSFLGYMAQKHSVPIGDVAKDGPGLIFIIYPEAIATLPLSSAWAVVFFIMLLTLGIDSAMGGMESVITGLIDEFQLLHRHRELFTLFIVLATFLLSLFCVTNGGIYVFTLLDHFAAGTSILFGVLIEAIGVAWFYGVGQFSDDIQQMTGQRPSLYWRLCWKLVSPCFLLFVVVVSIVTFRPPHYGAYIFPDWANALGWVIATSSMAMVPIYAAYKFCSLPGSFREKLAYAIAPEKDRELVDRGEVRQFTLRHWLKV

COc1cc2ccc(O[C@@H]3C[C@H]4CC[C@@H](C3)N4)cc2oc1=O [IP2015, exo-7-[(8-azabicyclo[3.2.1]octan-3-yl)oxy]-3-methoxy-chromen-2-one]
IC50 [1]: 1.44 nM | Dopamine (DA) elevation in cortex (Dopamine (DA)): increased; also recorded: most pronounced | Dopamine (DA) elevation in striatum (Dopamine (DA)): less and only some elevation | area of brush-evoked allodynia compared to placebo ([2]; 5 mg IP2015, 120 min after capsaicin injection, P=0.049): significantly lowered | Pain Score of Brush-evoked Allodynia Using an NRS, Adjusted Mean (MMRM) ([2]; 5 mg IP2015): 1.8 | Subjective Rating of Pain, Adjusted Mean (MMRM) ([2]; 5 mg IP2015 single oral dose): 15.6 mm | adjusted mean pain score of hyperalgesia compared to placebo ([2]; 5 mg and 10 mg IP2015, 300 mg pregabalin, all post-capsaicin injection timepoints): lower | average decrease in hyperalgesic area across all timepoints compared to placebo ([2]; 10 mg IP2015): 4 cm^2 | decrease of subjective rating of pain compared to placebo ([2]; 10 mg IP2015, 15 min post capsaicin): 7.2 mm | decrease of subjective rating of pain compared to placebo ([2]; 10 mg IP2015, 30 min post capsaicin): 8.3 mm | decrease of subjective rating of pain compared to placebo ([2]; 10 mg IP2015, 60 min post capsaicin): 7.5 mm | Pain Score of Brush-evoked Allodynia Using an NRS, Adjusted Mean (MMRM) ([2]; 10 mg IP2015): 1.6 | overall increase in warm detection threshold between test and control areas (QST) ([2]; 10 mg IP2015, p = 0.013, post-hoc analysis): significant | pressure pain threshold (QST) ([2]; 10 mg IP2015, post-hoc analysis): best effects | Subjective Rating of Pain, Adjusted Mean (MMRM) ([2]; 10 mg IP2015 single oral dose): 11.7 mm | thermal sensory limen warm test (QST) ([2]; IP2015 versus pregabalin, post-hoc analysis): improved effects compared to pregabalin
